The text below walks through data of PMC6479694, “Studies on the Interaction between Poly-Phosphane Gold(I) Complexes and Dihydrofolate Reductase: An Interplay with Nicotinamide Adenine Dinucleotide Cofactor” (International Journal of Molecular Sciences, 2019).

Read-outs that look alike come from different tables or passages of the source.

One data set concerns DHFR. Set-up: method as in PMID 17920, PMID 12359872. Particulars: cited from earlier work.
Data set [1] has as its target T1, DHFR from E. coli (Escherichia coli, UniProt P0ABQ4).
T1 construct: made in house
Nature of the data set: Fluorimetric binding assay, quenching of DHFR tryptophan emission (λexc = 280 nm). Particulars: for Kd: without NADPH. On the procedure:
The Hepes/methanol solutions of the gold(I) compounds were used for the fluorimetric assays (see materials and methods section) regarding DHFR from E. coli. The emission’s maximum of DHFR was detected at 344 nm upon excitation at 280 nm; by adding additional amounts of the gold complex in Hepes/methanol solutions (ranging among 4 ÷ 50 µM), the quenching of this emission intensity was observed. In Figure 3, spectra showing the effect of ^4L3AuCl on DHFR emission are reported. It is possible to observe the quenching of the Tryptophan’s emission and the corresponding increase of the intrinsic phosphorescence of the gold compound.
(§1) The fluorimetric analysis was performed using a 1 mL quartz cuvette and a Perkin–Elmer Fluorescence Spectrometer LS 55. For all the analysis we used 5–12 µM solutions of DHFR and increasing concentrations of gold(I) compounds in the 4–60 µM range. For some experiments, saturating concentrations of NADPH (50 µM) were added to the initial solutions of DHFR to observe the affinity variation of the complexes with respect to the DHFR.
All the spectra were recorded in the range between 250 and 600 nm using an excitation wavelength characteristic of the Tryptophan, equal to 280 nm. For most of the experiments the temperature was kept constant at 25 °C; furthermore, to analyze the thermodynamic aspects of the reactions (via the van’t Hoff equation), quenching spectra of DHFR in presence of the gold(I) complexes were recorded at −4 and 10 °C as well.
(§2) The fluorimetric data were analyzed using the binding isotherm (Equation (2)), where [Q] is the concentration of the added quenching ligand, F is the measured fluorescence, F0 is the starting fluorescence, Fc is the fluorescence of the fully complexed protein, Kd is the dissociation constant, and n is the Hill coefficient. Indeed, n is a phenomenological parameter, an interaction coefficient, such as when n = 1 the equation describes a complex formation with one site of interaction, when n = 2 binding occurs with a dimer, when 1 < n < 2 a cooperative interaction occurs. (2) F0−F/F−Fc=[Q]^n/(Kd+[Q])^n

The nature of data set [2]: UV-visible spectroscopy stability test in Hepes/methanol solution. Particulars: 11.85 µM, Hepes/methanol 80:20, 30 °C, one hour, every 3 minutes. Format: physicochemical. The method, then: The preparation of the gold compounds was performed according to methods already published and was based on the substitution of the labile ligand from the gold precursor [AuCl(Me2S)], by mean of a more coordinative ligand, such as the PPh3 or its modified analogs, ^4L and ^2L. Mole ratio with an excess of the phosphane ligand was pursued with the aim to enhance the reaction yield for tris-phosphane compounds. The solids obtained by crystallization were characterized by elemental analysis, ^1H and ^31P NMR, IR, and ESI Mass spectrometry. The stability of the stock solutions upon dilution was checked by recording UV-visible spectra (see Supplementary Material, Figures S1 and S2). The reactants for the ester reaction and ^4L or ^2L ligands were bought from Aldrich and used without any purification. Methanol or methylene chloride solvents were degassed and dried over molecular sieves.
UV-visible spectroscopy stability tests of compounds 4L3AuCl, 4L2AuCl, and 2L2AuCl on […]
Acquisitions of the absorptions in the range of 200–700 nm of the tested solutions were led for an hour lapse every 3 minutes in 11.85 µM concentration of 4L3AuCL (figure S1), 4L2AuCl, and 2L2AuCl (figure S2) at 30 °C. The stability was tested in Hepes/methanol 80:20, which are the same conditions used for the inhibition tests.
Figure S1. UV-visible spectra for 11.85 µM of 4L3AuCl in hepes/methanol
(1 picture or pasted object on this page, not shown here)

Data set [3] concerns the target T1, DHFR from E. coli. Nature of the data set: Inhibition of DHFR-catalysed reduction of H2F to H4F, spectrophotometric at 340 nm, Dixon plot. The format is biochemical. To be noted: pH 7.3, 30 °C, saturating NADPH, H2F 1.5-10 µM, Hepes/methanol. On the procedure: The phosphane gold(I) compounds were used to prepare buffered stock solutions at pH = 7.3 at 30 °C for the inhibition tests of DHFR from E coli. In Table 1, the list of the gold(I) compounds used for the tests and the corresponding inhibition constants are reported.
The inhibition action of the gold phosphane compounds was tested in regards to the reduction of H2F to H4F reaction, catalyzed by DHFR [2]. The inhibition tests were led by analyzing the reciprocal reaction rate upon the addition of Hepes/methanol solutions of gold compounds in different set of tests in the saturated concentration of NADPH. The tests were repeated with different amounts of dihydrofolate (DHF) (1.5 ÷ 10 µM).
The standard deviations were calculated for a minimum of three determinations. (1) 1/ν=Km/VmaxKi[S]∗[I]+1/Vmax(1+Km/[S])
The activity of the DHFR was followed by recording the absorbance with a Shimadzu UV-2450 (UV-Vis spectrophotometer). The enzyme assays were made in a quartz cuvette by using similar experimental conditions: DHFR 3-5 nM, NADPH 60–80 μM, and H2F 1.5, 4, and 10 μM. The procedure consisted in the preparation of the following mixtures: 800–971 µL of 50 mM Hepes buffer at pH = 7.3, 20 μL of NADPH, 10 µl of DHFR, and increasing quantities of gold(I) compounds stock solutions in order to achieve higher accuracy in the measurement of the inhibitory effect. After storing the mixture for 5 min at 30 °C, 4–33 µL of H2F was added. The decreasing absorbance at 340 nm, due to the oxidation of NADPH to NADP^+, was detected after adding the H2F, and expressed in U mL^−1 using the equation: U·mL^−1 = Δabs/Δt/11.8 × dilution factor, where 11.8 is the mMolar extinction coefficient when NADPH and H2F are simultaneously present in solution. The Ki values were calculated with the Dixon plot from the second plot obtained computing the slope values against the reciprocal of the H2F concentrations.

The target of the next data set is T2, DHFR/NADPH (Escherichia coli, UniProt P0ABQ4).
T2 construct: made in house
Nature of the data set: Fluorimetric binding assay on DHFR in presence of saturating NADPH. To be noted: 25 °C, saturating NADPH (50 µM); read-out: Kd ± s.d. (25 °C) in presence of saturating NADPH.
Description: After these preliminary emissive property characterizations, the fluorimetric studies were led in the presence of the enzyme DHFR and the cofactor NADPH [26]. […] Additionally, NADPH is fluorescent, with an absorption maximum at about 340 nm and an emission maximum at about 450 nm. […] Moreover, because NADPH has a maximum of absorption at 340 nm, significant energy transfer from the excited tryptophan of the enzyme to bound NADPH occurs; as a consequence, a new emission at 420–450 nm is then observed. Figure 8 reports the progressive quenching of the DHFR and NADPH emissions by stepwise adding of solution of ^4L3AuCl. Moreover, a slight shift of the typical emission at […] (λexc = 280 nm) is observed.
as §1, §2

The mark [4] stands for this setting: van't Hoff equation from Kd at 25, 10 and −4 °C.

For the compound `CN(Cc1cnc2nc(N)nc(N)c2n1)c1ccc(C(=O)N[C@@H](CCC(=O)O)C(=O)O)cc1` [Methotrexate], in the data set with DHFR, the “stronger bond to DHFR than DHF (factor)” value is 10^3.
Broadly, the Kd is a measure of binding affinity in units of concentration. One may read the Ki as the dissociation constant of the complex between target and ligand, obtained from inhibition or displacement. A high value points to lower affinity. As for `O=C(O)c1ccc(P(c2ccccc2)c2ccccc2)cc1.O=C(O)c1ccc(P(c2ccccc2)c2ccccc2)cc1.O=C(O)c1ccc(P(c2ccccc2)c2ccccc2)cc1.[Cl][Au]` [^4L3AuCl, [tris(4-benzoate-diphenylphosphanyl)-gold(I)chloride]], the Kd is 3.32 µM at DHFR from E. coli [1] (10 °C, read-out: Kd ± s.d. (10 °C) (converted)); 3.84 ± 0.29 µM at DHFR from E. coli [1] (25 °C, Hepes/methanol, read-out: Kd ± s.d., T = 25 °C); 2 µM on DHFR from E. coli [1] (−4 °C, read-out: Kd ± s.d. (−4 °C) (converted)); 5.05 ± 2.7 µM on DHFR/NADPH. For the same compound, the “n = Hill coefficient” value on DHFR from E. coli [1] (25 °C, when not specified n = 1) was found to be 1.73. On DHFR from E. coli [1] (from van't Hoff analysis), the “TΔS°” value was determined as 2.19 ± 0.1 kcal/mol. Also, the “ΔG°” value at DHFR from E. coli [1] (standard free energy equation from ΔH° and TΔS°) is -7.23 ± 0.12 kcal/mol. The “ΔH°” value on DHFR from E. coli [1] (setting [4]) is -5.04 ± 0.08 kcal/mol. Further, at DHFR from E. coli [1] (setting [4]), the “ΔS°” value is 7.34 ± 0.005 cal/mol K. In addition, the “Stability of the solution (UV-visible spectra 200–700 nm)” value in data set [2] is recorded as “no overall changes in solution over”. The compound also came in with a Ki at DHFR from E. coli [3] of 4.6 ± 0.5 µM.
